Results reported in US20180193409A1, “PEPTIDYL TPOR ANTAGONISTS AND USES THEREOF” (POLYMERS CRC LIMITED, priority 2015, published 2018).
Bridge positions count the residues as written; N and C are the ends. Peptide text beside a SMILES is read from it. I, II: the chains in the order shown.

Assays:
[1] = target: T1, receptor for human TPO (c-Mpl) (Homo sapiens, UniProt P40238); test: Antagonist assay: proliferation of FD-Mpl cells in media supplemented with rhTPO (ATP-luminescence); assay type: cell-based; details: murine FD-Mpl cells, 6 or 10 ng/mL rhTPO (LCP also 30 ng/mL), 24 hours; read-out: concentration at which the decrease in normalised cell proliferation occurred (estimated EC50, antagonist assay)
T1 construct: expressed in transfected cells; host or cells: FD-Mpl (murine, derived from FDCP-1)
T1 sequence (P40238 26-635): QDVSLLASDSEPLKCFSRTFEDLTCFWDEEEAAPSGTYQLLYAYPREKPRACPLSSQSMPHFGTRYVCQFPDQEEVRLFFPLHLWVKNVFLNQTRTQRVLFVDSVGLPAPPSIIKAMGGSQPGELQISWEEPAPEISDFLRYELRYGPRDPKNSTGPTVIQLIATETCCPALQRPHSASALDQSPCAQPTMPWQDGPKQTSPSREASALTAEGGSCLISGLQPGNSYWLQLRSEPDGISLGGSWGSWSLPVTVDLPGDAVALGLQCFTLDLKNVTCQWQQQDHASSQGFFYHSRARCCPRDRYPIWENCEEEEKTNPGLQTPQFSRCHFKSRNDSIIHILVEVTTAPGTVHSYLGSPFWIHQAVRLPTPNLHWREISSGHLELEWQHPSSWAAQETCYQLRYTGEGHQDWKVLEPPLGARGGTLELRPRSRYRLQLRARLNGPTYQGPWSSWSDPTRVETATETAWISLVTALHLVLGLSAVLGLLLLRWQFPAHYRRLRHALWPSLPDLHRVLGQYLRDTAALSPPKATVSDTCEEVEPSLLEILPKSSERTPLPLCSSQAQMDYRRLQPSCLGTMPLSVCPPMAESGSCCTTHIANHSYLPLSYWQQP
Protocol: Bioactivity testing was carried out as follows. All compounds were tested on a murine TPO-dependent cell line FD-Mpl. FD-Mpl cells are derived from the haemopoietic growth factor dependent cell line FDCP-1 and express the receptor for human TPO (c-Mpl)—(as per Winkler, D., Riches, A., Condie, G., Tarasova, A., Andrade, J., White, J., Cablewski, T., Werkmeister, J., Haylock, D. and Meagher, L., ACS Chemical Biology 2010, DOI: 10.1021/cb100100u). […] FD-Mpl cells were counted and resuspended in a mix of cell culture medium with added peptide of interest and incubated at 4° C. for 2 h (for the agonist assay this brief incubation at 4° C. for 2 h was omitted). […]
Cells were then incubated at 37° C. for 24 hours (or 48 hours in the case of the agonist assay) and cell proliferation was assessed as follows. Cells were plated in quadruplicate onto white luminescence detection plates and cell proliferation and viability were assessed by an ATP-luminescence detection assay (CellTiter Glo Luminescent Cell Viability Assay Kit, Promega). Cells were also plated in triplicate and cell morphology was assessed using phase contrast microscopy. […]

[2] = target: T1, receptor for human TPO (c-Mpl); test: Agonist assay: proliferation of FD-Mpl cells in the absence of rhTPO (ATP-luminescence); assay type: cell-based; details: no rhTPO
Protocol: Bioactivity testing was carried out as follows. All compounds were tested on a murine TPO-dependent cell line FD-Mpl. FD-Mpl cells are derived from the haemopoietic growth factor dependent cell line FDCP-1 and express the receptor for human TPO (c-Mpl)—(as per Winkler, D., Riches, A., Condie, G., Tarasova, A., Andrade, J., White, J., Cablewski, T., Werkmeister, J., Haylock, D. and Meagher, L., ACS Chemical Biology 2010, DOI: 10.1021/cb100100u). These cells are typically cultured in media supplemented with 10% foetal bovine serum and the cytokines interleukin-3, GM-CSF or TPO (as per Naparstek, E., Pierce, J., Metcalf, D., Shadduck, R., Ihle, J., Leder, A., Sakakeeny, M. A., Wagner, K., Falco, J., Fitzgerald, T. J. and Greenberger, J. S., Blood 1986, 67, 1395-1403). In the absence of either of these factors, FDCP-1 cells rapidly undergo apoptosis (usually within 24 hours). FD-Mpl cells were maintained in DMEM medium with 10% foetal calf serum (FCS) and supplemented with 30 ng/mL of recombinant human TPO (rhTPO, Apollo Cytokine Research). For the antagonist assay, FD-Mpl cells were harvested by centrifugation and the resulting cell pellet was thoroughly washed, twice, with 10 mL PBS to remove residual cytokine. The cells were then resuspended in 5 mL of cell culture medium without rhTPO and incubated at 37° C. for 1 h (or 2 h in the case of the agonist assay; Note: short term withdrawal of rhTPO enhances up-regulation of the TPO receptor, c-Mpl). FD-Mpl cells were counted and resuspended in a mix of cell culture medium with added peptide of interest and incubated at 4° C. for 2 h (for the agonist assay this brief incubation at 4° C. for 2 h was omitted). Following this incubation, cells were supplemented with low doses of TPO (either 6 or 10 ng/mL of rhTPO) and plated at 5000 cells/well/100 μL medium in a 96-well tissue culture plate. […]
Cells were then incubated at 37° C. for 24 hours (or 48 hours in the case of the agonist assay) and cell proliferation was assessed as follows. Cells were plated in quadruplicate onto white luminescence detection plates and cell proliferation and viability were assessed by an ATP-luminescence detection assay (CellTiter Glo Luminescent Cell Viability Assay Kit, Promega). Cells were also plated in triplicate and cell morphology was assessed using phase contrast microscopy.
For the antagonist assay, the cell numbers determined via the luminescence assay were normalised by the cell numbers obtained for FD-Mpl cells cultured in either 6 or 10 ng/mL of rhTPO without added peptide and plotted as a function of the peptide concentration (see FIGS. 1a and b). […] For the agonist assay used with the LCP-PD peptide, the cell numbers were normalised by the cell numbers obtained with media supplemented with 30 ng/mL rhTPO and expressed as a percentage. […]

Row | EC50 [1] | agonist activity at the c-Mpl receptor (in words) ([2]; FD-Mpl cells) | efficacy with respect to cell proliferation (agonist assay) ([2]; FD-Mpl cells, normalised by cell numbers with 30 ng/mL rhTPO) | EC50 ([2]; murine FD-Mpl cells, 48 hours, read-out: concentration at which increased cell proliferation was observed (agonist assay)) | SMILES
1 | 20 to 30 µM |  |  |  | CC(=O)N[C@@H](C)C(=O)N[C@H]1CSSC[C@@H](C(=O)N[C@@H](C)C(=O)O)NC(=O)[C@H](C)NC(=O)[C@H](C)NC(=O)[C@H](C)NC(=O)[C@H](CC(C)C)NC(=O)[C@H](Cc2c[nH]c3ccccc23)NC(=O)[C@H](CCC(N)=O)NC(=O)[C@H](CCCNC(=N)N)NC(=O)[C@H](CC(C)C)NC(=O)[C@H](C)NC(=O)[C@H](C)NC(=O)[C@H](C)NC1=O [Example 2, AcACAAALRQWLAAACA] (Ac-ACAAALRQWLAAACA-OH; disulfide 2-14)
2 |  | potent agonist |  |  | CC[C@H](C)[C@@H]1NC(=O)[C@H](C)NC(=O)[C@@H](NC(=O)[C@H](C)NC(C)=O)CSSC[C@H](NC(=O)[C@H](C)NC(C)=O)C(=O)N[C@@H](C)C(=O)N[C@@H]([C@@H](C)CC)C(=O)N[C@@H](CCC(=O)O)C(=O)NCC(=O)N2CCC[C@H]2C(=O)N[C@@H]([C@@H](C)O)C(=O)N[C@@H](CC(C)C)C(=O)N[C@@H](CCCNC(=N)N)C(=O)N[C@@H](CCC(N)=O)C(=O)N[C@@H](Cc2c[nH]c3ccccc23)C(=O)N[C@@H](CC(C)C)C(=O)N[C@@H](C)C(=O)N[C@@H](C)C(=O)N[C@@H](CCCNC(=N)N)C(=O)N[C@@H](C)C(=O)N[C@@H](C)C(=O)N[C@H](C(=O)N[C@@H](C)C(=O)O)CSSC[C@@H](C(=O)N[C@@H](C)C(=O)O)NC(=O)[C@H](C)NC(=O)[C@H](C)NC(=O)[C@H](CCCNC(=N)N)NC(=O)[C@H](C)NC(=O)[C@H](C)NC(=O)[C@H](CC(C)C)NC(=O)[C@H](Cc2c[nH]c3ccccc23)NC(=O)[C@H](CCC(N)=O)NC(=O)[C@H](CCCNC(=N)N)NC(=O)[C@H](CC(C)C)NC(=O)[C@H]([C@@H](C)O)NC(=O)[C@@H]2CCCN2C(=O)CNC(=O)[C@H](CCC(=O)O)NC1=O [LCP-PD] (I: Ac-ACAIEGPTLRQWLAARAACA-OH / II: Ac-ACAIEGPTLRQWLAARAACA-OH; disulfide I:2-II:2, I:19-II:19; C-terminus assumed)
3 | ~3 µM |  | 40% | ~0.06 µM | CC[C@H](C)[C@@H]1NC(=O)[C@H](C)NC(=O)[C@@H](NC(=O)[C@H](C)NC(C)=O)CSSC[C@@H](C(=O)N[C@@H](C)C(=O)O)NC(=O)[C@H](C)NC(=O)[C@H](C)NC(=O)[C@H](CCCNC(=N)N)NC(=O)[C@H](C)NC(=O)[C@H](C)NC(=O)[C@H](CC(C)C)NC(=O)[C@H](Cc2c[nH]c3ccccc23)NC(=O)[C@H](CCC(N)=O)NC(=O)[C@H](CCCNC(=N)N)NC(=O)[C@H](CC(C)C)NC(=O)[C@H]([C@@H](C)O)NC(=O)[C@@H]2CCCN2C(=O)CNC(=O)[C@H](CCC(=O)O)NC1=O [LCP] (Ac-ACAIEGPTLRQWLAARAACA-OH; disulfide 2-19; C-terminus assumed)
4 |  | reasonably potent agonist |  |  | CC(=O)N[C@@H](C)C(=O)N[C@H]1CSSC[C@H](NC(=O)[C@H](C)NC(C)=O)C(=O)N[C@@H](C)C(=O)N[C@@H](C)C(=O)N[C@@H](C)C(=O)N[C@@H](CC(C)C)C(=O)N[C@@H](CCCNC(=N)N)C(=O)N[C@@H](CCC(N)=O)C(=O)N[C@@H](Cc2c[nH]c3ccccc23)C(=O)N[C@@H](CC(C)C)C(=O)N[C@@H](C)C(=O)N[C@@H](C)C(=O)N[C@@H](C)C(=O)N[C@H](C(=O)N[C@@H](C)C(=O)O)CSSC[C@@H](C(=O)N[C@@H](C)C(=O)O)NC(=O)[C@H](C)NC(=O)[C@H](C)NC(=O)[C@H](C)NC(=O)[C@H](CC(C)C)NC(=O)[C@H](Cc2c[nH]c3ccccc23)NC(=O)[C@H](CCC(N)=O)NC(=O)[C@H](CCCNC(=N)N)NC(=O)[C@H](CC(C)C)NC(=O)[C@H](C)NC(=O)[C@H](C)NC(=O)[C@H](C)NC1=O [MCP-PD] (I: Ac-ACAAALRQWLAAACA-OH / II: Ac-ACAAALRQWLAAACA-OH; disulfide I:2-II:2, I:14-II:14; C-terminus assumed)
